Laboratory results published in paper PMC5218480 (PLoS ONE, 2017).

System: MV-4-11 cells
Experiment: Gene expression microarray analysis (Affymetrix PrimeView) and GSEA
Format: cell-based, human
Parameters: RFU PODN (11730768_x_at) / Fold change /veh PODN (11730768_x_at) / RFU LINC00158 (11744669_a_at) / Fold change /veh LINC00158 (11744669_a_at) / RFU DUSP10 (11751237_a_at) / Fold change /veh DUSP10 (11751237_a_at) / RFU ID3 (11757404_x_at) / Fold change /veh ID3 (11757404_x_at) / RFU PLEKHG5 (11737974_s_at) / Fold change /veh PLEKHG5 (11737974_s_at) / RFU LRRC4B (11730491_at) / Fold change /veh LRRC4B (11730491_at) / RFU GIMAP4 (11747438_a_at) / Fold change /veh GIMAP4 (11747438_a_at) / RFU KRT8 (11758183_x_at) / Fold change /veh KRT8 (11758183_x_at) / RFU CNN1 (11734310_a_at) / Fold change /veh CNN1 (11734310_a_at) / RFU VPS37D (11726825_at) / Fold change /veh VPS37D (11726825_at) / RFU C10orf10 (11716522_x_at) / Fold change /veh C10orf10 (11716522_x_at) / RFU KIR2DL2 /// KIR2DL4 /// KIR2DL5A /// KIR2DL5B /// KIR2DS1 /// KIR2DS2 /// KIR2DS3 /// KIR2DS4 /// KIR3DL3 /// KIR3DL3 /// KIR3DS1 (11738374_at) / Fold change /veh KIR2DL2 /// KIR2DL4 /// KIR2DL5A /// KIR2DL5B /// KIR2DS1 /// KIR2DS2 /// KIR2DS3 /// KIR2DS4 /// KIR3DL3 /// KIR3DL3 /// KIR3DS1 (11738374_at) / RFU C1QL1 (11718748_at) / Fold change /veh C1QL1 (11718748_at) / RFU TMPRSS4 (11747572_a_at) / Fold change /veh TMPRSS4 (11747572_a_at) / RFU HAMP (11756126_x_at) / Fold change /veh HAMP (11756126_x_at) / RFU RNFT2 (11725882_a_at) / Fold change /veh RNFT2 (11725882_a_at) / RFU NR4A2 (11747474_a_at) / Fold change /veh NR4A2 (11747474_a_at) / RFU ABCC12 (11746883_a_at) / Fold change /veh ABCC12 (11746883_a_at) / RFU TMEM136 (11760407_x_at) / Fold change /veh TMEM136 (11760407_x_at) / RFU CLDN22 /// WWC2 (11732394_at) / Fold change /veh CLDN22 /// WWC2 (11732394_at) / RFU HLA-DPB1 (11760878_x_at) / Fold change /veh HLA-DPB1 (11760878_x_at) / RFU SPINT1 (11716480_a_at) / Fold change /veh SPINT1 (11716480_a_at) / RFU GAP43 (11754022_s_at) / Fold change /veh GAP43 (11754022_s_at) / RFU A4GNT (11735810_at) / Fold change /veh A4GNT (11735810_at) / RFU PRB3 (11715151_x_at) / Fold change /veh PRB3 (11715151_x_at) / RFU TUBB4B (11761932_at) / Fold change /veh TUBB4B (11761932_at) / RFU CAPN14 (11732068_a_at) / Fold change /veh CAPN14 (11732068_a_at) / RFU TMCC2 (11721928_a_at) / Fold change /veh TMCC2 (11721928_a_at) / RFU IRGQ (11745062_a_at) / Fold change /veh IRGQ (11745062_a_at) / RFU FAM174B (11720279_a_at) / Fold change /veh FAM174B (11720279_a_at) / RFU TMPRSS4 (11748680_a_at) / Fold change /veh TMPRSS4 (11748680_a_at) / RFU FAM212B (11763350_a_at) / Fold change /veh FAM212B (11763350_a_at) / RFU PLEKHG5 (11743358_a_at) / Fold change /veh PLEKHG5 (11743358_a_at) / RFU ZSCAN30 (11745921_a_at) / Fold change /veh ZSCAN30 (11745921_a_at) / RFU CMKLR1 (11741424_a_at) / Fold change /veh CMKLR1 (11741424_a_at) / RFU LOC101060620 /// MAPK8IP1 (11723275_at) / Fold change /veh LOC101060620 /// MAPK8IP1 (11723275_at) / RFU SPTSSB (11747773_x_at) / Fold change /veh SPTSSB (11747773_x_at) / RFU PRSS12 (11739890_at) / Fold change /veh PRSS12 (11739890_at) / RFU BIN1 (11741810_x_at) / Fold change /veh BIN1 (11741810_x_at) / RFU WNT11 (11732464_a_at) / Fold change /veh WNT11 (11732464_a_at) / RFU C10orf10 (11716521_a_at) / Fold change /veh C10orf10 (11716521_a_at) / RFU C5orf56 (11738089_at) / Fold change /veh C5orf56 (11738089_at) / RFU CYB561 (11721691_x_at) / Fold change /veh CYB561 (11721691_x_at) / RFU ANKRD19P (11752326_a_at) / Fold change /veh ANKRD19P (11752326_a_at) / RFU OR2T12 /// OR2T33 /// OR2T8 (11738714_s_at) / Fold change /veh OR2T12 /// OR2T33 /// OR2T8 (11738714_s_at) / RFU VCAN (11748164_a_at) / Fold change /veh VCAN (11748164_a_at) / RFU JSRP1 (11732532_at) / Fold change /veh JSRP1 (11732532_at) / RFU KRTAP10-11 (11738290_x_at) / Fold change /veh KRTAP10-11 (11738290_x_at) / RFU MYO3A (11730013_a_at) / Fold change /veh MYO3A (11730013_a_at) / RFU EBF3 (11725865_a_at) / Fold change /veh EBF3 (11725865_a_at) / RFU CAMK2N1 (11719241_x_at) / Fold change /veh CAMK2N1 (11719241_x_at) / RFU C5orf56 (11738088_a_at) / Fold change /veh C5orf56 (11738088_a_at) / RFU OLFML3 (11715873_a_at) / Fold change /veh OLFML3 (11715873_a_at) / RFU LOC100653217 /// NTM (11731650_a_at) / Fold change /veh LOC100653217 /// NTM (11731650_a_at) / RFU MAPK11 (11762145_a_at) / Fold change /veh MAPK11 (11762145_a_at) / RFU FIZ1 (11724087_x_at) / Fold change /veh FIZ1 (11724087_x_at) / RFU OASL (11726364_x_at) / Fold change /veh OASL (11726364_x_at) / RFU SOX15 (11748057_x_at) / Fold change /veh SOX15 (11748057_x_at) / RFU CD79A (11719716_a_at) / Fold change /veh CD79A (11719716_a_at) / RFU HIST1H1D (11736915_at) / Fold change /veh HIST1H1D (11736915_at) / RFU CASKIN2 (11723855_a_at) / Fold change /veh CASKIN2 (11723855_a_at) / RFU LOC730098 (11760151_x_at) / Fold change /veh LOC730098 (11760151_x_at) / RFU OR4N2 (11742367_at) / Fold change /veh OR4N2 (11742367_at) / RFU PRRT2 (11749266_a_at) / Fold change /veh PRRT2 (11749266_a_at) / RFU SNX32 (11753110_a_at) / Fold change /veh SNX32 (11753110_a_at) / RFU CDHR5 (11726645_a_at) / Fold change /veh CDHR5 (11726645_a_at) / RFU RCAN1 (11760418_a_at) / Fold change /veh RCAN1 (11760418_a_at) / RFU FAM167A (11723789_a_at) / Fold change /veh FAM167A (11723789_a_at) / RFU FAM26E (11764081_at) / Fold change /veh FAM26E (11764081_at) / RFU ISYNA1 (11749810_s_at) / Fold change /veh ISYNA1 (11749810_s_at) / RFU ACY1 (11761880_at) / Fold change /veh ACY1 (11761880_at) / RFU 11764098_at / Fold change /veh 11764098_at / RFU SAMD14 (11745864_x_at) / Fold change /veh SAMD14 (11745864_x_at) / RFU NPB (11741838_a_at) / Fold change /veh NPB (11741838_a_at) / RFU TMPRSS6 (11731388_a_at) / Fold change /veh TMPRSS6 (11731388_a_at) / RFU KRTAP10-2 (11738614_at) / Fold change /veh KRTAP10-2 (11738614_at) / RFU ARHGAP8 /// PRR5-ARHGAP8 (11727945_x_at) / Fold change /veh ARHGAP8 /// PRR5-ARHGAP8 (11727945_x_at) / RFU KRTAP5-7 /// NADSYN1 (11734609_at) / Fold change /veh KRTAP5-7 /// NADSYN1 (11734609_at) / RFU RASL12 (11751679_a_at) / Fold change /veh RASL12 (11751679_a_at) / RFU CDKN2B (11736163_a_at) / Fold change /veh CDKN2B (11736163_a_at) / RFU PRF1 (11729649_at) / Fold change /veh PRF1 (11729649_at) / RFU, ZNF638 /// ZNF638-IT1 / Fold change vs veh, ZNF638 /// ZNF638-IT1 / RFU, PANK3 / Fold change vs veh, PANK3 / RFU, SH3YL1 / Fold change vs veh, SH3YL1 / RFU, ZEB2 / Fold change vs veh, ZEB2 / RFU, NRIP1 / Fold change vs veh, NRIP1 / RFU, PTTG1IP / Fold change vs veh, PTTG1IP / RFU, CAPN2 / Fold change vs veh, CAPN2 / RFU, MED14 / Fold change vs veh, MED14 / RFU, SNORA58 / Fold change vs veh, SNORA58 / RFU, C1orf63 / Fold change vs veh, C1orf63 / RFU, LRRFIP1 / Fold change vs veh, LRRFIP1 / RFU, NDUFAF7 / Fold change vs veh, NDUFAF7 / RFU, SLC12A2 / Fold change vs veh, SLC12A2 / RFU, IBTK / Fold change vs veh, IBTK / RFU, ESF1 / Fold change vs veh, ESF1 / Fold change vs veh, TMEM50B / RFU, TAOK1 / Fold change vs veh, TAOK1 / RFU, ACBD3 / Fold change vs veh, ACBD3 / RFU, TMA16 / Fold change vs veh, TMA16 / RFU, RWDD3 / Fold change vs veh, RWDD3 / RFU, BCAT1 / Fold change vs veh, BCAT1 / RFU, EDEM3 / Fold change vs veh, EDEM3 / RFU, TMEM33 / Fold change vs veh, TMEM33 / RFU, WDR75 / Fold change vs veh, WDR75 / RFU, AHCTF1 / Fold change vs veh, AHCTF1 / RFU, TFRC / Fold change vs veh, TFRC / RFU, ZDHHC17 / Fold change vs veh, ZDHHC17 / RFU, NOM1 / Fold change vs veh, NOM1 / RFU, ARL8B / Fold change vs veh, ARL8B / RFU, ZBTB11 / Fold change vs veh, ZBTB11 / RFU, TAMM41 / Fold change vs veh, TAMM41 / RFU, KIAA1704 /// LOC100996395 / Fold change vs veh, KIAA1704 /// LOC100996395 / RFU, ING1 / Fold change vs veh, ING1 / RFU, TRMT61B / Fold change vs veh, TRMT61B / RFU, FUBP3 / Fold change vs veh, FUBP3 / RFU, TP53 / Fold change vs veh, TP53 / RFU, TNKS2 / Fold change vs veh, TNKS2 / RFU, ZFP14 / Fold change vs veh, ZFP14 / RFU, ACTR2 / Fold change vs veh, ACTR2 / RFU, PPP3R1 / Fold change vs veh, PPP3R1 / RFU, PIK3R1 / Fold change vs veh, PIK3R1 / RFU, HNRNPA1 / Fold change vs veh, HNRNPA1 / RFU, RNF170 / Fold change vs veh, RNF170 / RFU, ZNF28 / Fold change vs veh, ZNF28 / RFU, RNGTT / Fold change vs veh, RNGTT / RFU, OGT / Fold change vs veh, OGT / RFU, BRD1 / Fold change vs veh, BRD1 / RFU, MARS / Fold change vs veh, MARS / RFU, ZNF655 / Fold change vs veh, ZNF655 / RFU, FAHD1 / Fold change vs veh, FAHD1 / RFU, BDP1 / Fold change vs veh, BDP1 / RFU, LRRCC1 / Fold change vs veh, LRRCC1 / RFU, ARID1A / Fold change vs veh, ARID1A / RFU, ZNF146 / Fold change vs veh, ZNF146 / RFU, ZNF330 / Fold change vs veh, ZNF330 / RFU, GPN3 / Fold change vs veh, GPN3 / RFU, C9orf123 / Fold change vs veh, C9orf123 / RFU, N4BP2L2 / Fold change vs veh, N4BP2L2 / RFU, ARFIP1 / Fold change vs veh, ARFIP1 / RFU, FAM179B / Fold change vs veh, FAM179B / RFU, BCL10 / Fold change vs veh, BCL10 / RFU, UHRF1BP1L / Fold change vs veh, UHRF1BP1L / RFU, BET1 / Fold change vs veh, BET1 / RFU, CNOT2 / Fold change vs veh, CNOT2 / RFU, ZNF268 / Fold change vs veh, ZNF268 / Fold change vs veh, ZNF507 / RFU, DGCR2 / Fold change vs veh, DGCR2 / RFU, WDSUB1 / Fold change vs veh, WDSUB1 / Fold change vs veh, HSP90B1 /// MIR3652 / RFU, ADSS / Fold change vs veh, ADSS / RFU, GK / Fold change vs veh, GK / RFU, ZNF148 / Fold change vs veh, ZNF148 / RFU, TAF9 / Fold change vs veh, TAF9 / RFU, SLC1A5 / Fold change vs veh, SLC1A5 / RFU, SLMO2 / Fold change vs veh, SLMO2 / RFU, ABCC4 / Fold change vs veh, ABCC4 / RFU, LOC101060439 /// RAP1B / Fold change vs veh, LOC101060439 /// RAP1B / RFU, RFX7 / Fold change vs veh, RFX7 / RFU, GTPBP10 / Fold change vs veh, GTPBP10 / RFU, CNEP1R1 / Fold change vs veh, CNEP1R1 / RFU, BIVM-ERCC5 /// ERCC5 / Fold change vs veh, BIVM-ERCC5 /// ERCC5 / RFU, ILF3 / Fold change vs veh, ILF3 / RFU 11762660_at / Fold change /veh 11762660_at / RFU VCAN (11757783_s_at) / Fold change /veh VCAN (11757783_s_at) / RFU DDX43 (11728927_at) / Fold change /veh DDX43 (11728927_at) / RFU KRT8 (11758188_x_at) / Fold change /veh KRT8 (11758188_x_at) / RFU NKD1 (11759106_at) / Fold change /veh NKD1 (11759106_at) / RFU SRD5A1 (11742802_a_at) / Fold change /veh SRD5A1 (11742802_a_at) / RFU TPSAB1 /// TPSB2 (11721975_s_at) / Fold change /veh TPSAB1 /// TPSB2 (11721975_s_at) / RFU GSTM3 (11746129_a_at) / Fold change /veh GSTM3 (11746129_a_at) / RFU IL23R (11737362_x_at) / Fold change /veh IL23R (11737362_x_at) / RFU TMEM51 (11727254_a_at) / Fold change /veh TMEM51 (11727254_a_at) / RFU PIWIL2 (11732686_x_at) / Fold change /veh PIWIL2 (11732686_x_at) / RFU ORM1 (11744905_x_at) / Fold change /veh ORM1 (11744905_x_at) / RFU CCDC152 (11743942_at) / Fold change /veh CCDC152 (11743942_at) / RFU ECM1 (11717891_a_at) / Fold change /veh ECM1 (11717891_a_at) / RFU IL23R (11748794_a_at) / Fold change /veh IL23R (11748794_a_at) / RFU TNFAIP8L3 (11732012_x_at) / Fold change /veh TNFAIP8L3 (11732012_x_at) / RFU MBOAT4 (11741988_at) / Fold change /veh MBOAT4 (11741988_at) / RFU 11764193_at / Fold change /veh 11764193_at / RFU TMEM53 (11763286_at) / Fold change /veh TMEM53 (11763286_at) / RFU MAGEB2 (11727129_at) / Fold change /veh MAGEB2 (11727129_at) / RFU TMEM200A (11744735_a_at) / Fold change /veh TMEM200A (11744735_a_at) / RFU CCDC152 (11751479_a_at) / Fold change /veh CCDC152 (11751479_a_at) / RFU FAM211A (11726209_a_at) / Fold change /veh FAM211A (11726209_a_at) / RFU RGS16 (11746705_a_at) / Fold change /veh RGS16 (11746705_a_at) / RFU VCAN (11755009_s_at) / Fold change /veh VCAN (11755009_s_at) / RFU RHOB (11743442_s_at) / Fold change /veh RHOB (11743442_s_at) / RFU RGS16 (11720943_a_at) / Fold change /veh RGS16 (11720943_a_at) / RFU RGS16 (11720944_at) / Fold change /veh RGS16 (11720944_at) / RFU, VPS4B / Fold change vs veh, VPS4B / RFU, CREB1 / Fold change vs veh, CREB1 / RFU, DNAJC13 / Fold change vs veh, DNAJC13 / RFU, GNAQ / Fold change vs veh, GNAQ / RFU, CDK5R1 / Fold change vs veh, CDK5R1 / RFU, ZRANB3 / Fold change vs veh, ZRANB3 / RFU, CUL4A / Fold change vs veh, CUL4A / RFU, CCNY / Fold change vs veh, CCNY / RFU, UFL1 / Fold change vs veh, UFL1 / RFU, COG3 / Fold change vs veh, COG3 / RFU, DIAPH2 / Fold change vs veh, DIAPH2 / RFU, SKA2 / Fold change vs veh, SKA2 / RFU, AFF3 / Fold change vs veh, AFF3 / RFU, LMF1 / Fold change vs veh, LMF1 / RFU, IPO11 / Fold change vs veh, IPO11 / RFU, DFFB / Fold change vs veh, DFFB / RFU, FOXP1 / Fold change vs veh, FOXP1 / RFU, CARD8 / Fold change vs veh, CARD8 / RFU, STRN3 / Fold change vs veh, STRN3 / RFU, ADK / Fold change vs veh, ADK / RFU, RASSF2 / Fold change vs veh, RASSF2 / RFU, WIPF1 / Fold change vs veh, WIPF1 / RFU, LARP1B / Fold change vs veh, LARP1B / RFU, RASA1 / Fold change vs veh, RASA1 / RFU, RB1 / Fold change vs veh, RB1 / RFU, PPFIA1 / Fold change vs veh, PPFIA1 / RFU, MAT2A / Fold change vs veh, MAT2A / RFU, CCT5 / Fold change vs veh, CCT5 / RFU, WDR92 / Fold change vs veh, WDR92 / RFU, CUX1 / Fold change vs veh, CUX1 / RFU, TTC7A / Fold change vs veh, TTC7A / RFU, TMEM135 / Fold change vs veh, TMEM135 / RFU, DEPTOR / Fold change vs veh, DEPTOR / RFU, CPM / Fold change vs veh, CPM / RFU, DNAJB6 / Fold change vs veh, DNAJB6 / RFU, CACNA2D3 / Fold change vs veh, CACNA2D3 / RFU, DTX4 / Fold change vs veh, DTX4 / RFU, TFCP2 / Fold change vs veh, TFCP2 / RFU, GMCL1 /// GMCL1P1 / Fold change vs veh, GMCL1 /// GMCL1P1 / RFU, AEBP2 / Fold change vs veh, AEBP2 / RFU, SNHG1 /// SNORD22 /// SNORD25 /// SNORD26 /// SNORD27 /// SNORD28 /// SNORD29 /// SNORD31 / Fold change vs veh, SNHG1 /// SNORD22 /// SNORD25 /// SNORD26 /// SNORD27 /// SNORD28 /// SNORD29 /// SNORD31 / Fold change (Aza/veh), C12orf56 (ProbeSet 11735607_a_at) / Fold change (ACY-1035/veh), C12orf56 (ProbeSet 11735607_a_at) / Fold change (Aza/veh), FGFR1OP (ProbeSet 11751329_s_at) / Fold change (ACY-1035/veh), FGFR1OP (ProbeSet 11751329_s_at) / Fold change (Aza/veh), VPS36 (ProbeSet 11739960_a_at) / Fold change (ACY-1035/veh), VPS36 (ProbeSet 11739960_a_at) / RFU SYPL1 (11715823_x_at) / Fold change /veh SYPL1 (11715823_x_at) / RFU IGFBP7 (11715501_s_at) / Fold change /veh IGFBP7 (11715501_s_at) / RFU REEP3 (11722064_at) / Fold change /veh REEP3 (11722064_at) / RFU IGLL1 (11728026_x_at) / Fold change /veh IGLL1 (11728026_x_at): dose or concentration left out as unconfirmed
Conditions: ProbeSet 11732281_s_at; LIST D

Nc1ccc(-c2cccs2)cc1NC(=O)c1ccc2c(c1)cc(C1CC1)n2CCN1CCOCC1 [ACY-1035]
RFU, FOXP1: 243.86 RFU
